These results are taken from patent publication US20070270429A1, “Function Inhibitor of Effector Cell” (priority 2003, published 2007).

Test [1] relates to human CD8-positive T cell. In words: Allo-reaction growth test (class I-MLR) of human CD8-positive T cell with dendritic cell. It is filed as cell-based. The settings on record: 5 days. The protocol:
(§1) After treating the cells with BrdU for a predetermined period of time, the plate was centrifuged (300×g, 10 minutes), and then turned upside down and lightly shaken to remove the labeled medium. The plate was dried (for about 15 minutes) using a hair dryer. A cell fixing and DNA denaturing solution (200 μl, attached to the kit) was added to each well and left alone for 30 minutes. After removing the cell fixing and DNA denaturing solution and further removing water, a peroxidase-labeled anti-BrdU antibody (anti-BrdU-POD reaction solution) (100 μl) (attached to the kit) was added thereto and left alone at room temperature for 90 minutes. The antibody solution was discarded, each well was washed three times with PBS (200 μl), water was discarded, and then the substrate solution (100 μl) (attached to the kit) was added thereto. After carrying out the enzyme reaction for a period of 5 to 30 minutes, 1 N sulfuric acid solution (25 μl) was added thereto and stirred on a shaker. The absorbance of samples was measured by a microplate reader (SPECTRAMAX-PRO) at 450 nm (control wavelength: 690 nm).
A heparinized blood sample was collected from a human, healthy volunteer, and peripheral blood mononuclear cell (PBMC) was isolated by the density gradient centrifugation described in the above-described (2-1). CD8-positive T cell was isolated from this PBMC by the negative selection method described in the above-described (2-1).
CD 14-positive cell was obtained by fractionating the PBMC obtained by the above-described method using VarioMACS (Miltenyl Biotec). Specifically, CD14 antigen was labeled with antibody magnetic beads by adding 20 μl of CD14 MicroBeads (Miltenyl Biotec) to 1×10^7 cells of the PBMC, mixing them and incubating at 6 to 12° C. for 15 minutes. The cells were washed once with an MACS buffer (PBS containing 2 mM EDTA and 0.5% bovine serum albumin (BSA)) (20 ml) (attached to the kit) and re-suspended in the MACS buffer (2 ml). […]

For test [2], the system named is human CD4-positive Th1 differentiation cell. Description: Cell growth inhibition test of human CD4-positive Th1 differentiation cell (anti-CD3 antibody stimulation, BrdU uptake). It is filed as cell-based. The procedure: as §1
The cells fractionated by the method described in the above-described (2-1) were inoculated into a 96 well plate coated with the anti-human CD3 antibody, at a cell density of 2×10^5 cells/100 μl/well, a medium (100 μl) containing 2 times concentration solution of each drug to be tested (contains 0.2% DMSO) was added thereto, and the cells were cultured for 48 hours in a CO2 incubator (5% CO2, humidity 95%) kept at 37° C. The BrdU uptake activity was measured by the method described in the above-described (2-4).
The cell growth inhibition activity of human CD8-positive memory T cell by the compounds of the […] was calculated as the inhibition ratio (%) in accordance with the following formula, in which the value of well to which the medium containing DMSO but not containing the drug to be tested was added was used as the control value (A), and the value of well to which the DMSO-containing medium containing the drug to be tested was added as the value (B). Inhibition ratio (%)=[(A−B)/A]×100 Results:
A heparinized blood sample was collected from a human, healthy volunteer, and peripheral blood mononuclear cell (PBMC) was isolated by the density gradient centrifugation described in the above-described (2-1). CD4-positive T cell was isolated from PBMC by a negative selection method using Human T Cell CD4 Subset Column Kit (R & D Systems, Inc). Specifically, the cells to be removed such as B cell, CD8-positive T cell, monocyte and the like were labeled with antibodies by adding an antibody cocktail (1 ml) (attached to the kit) to PBMC (up to 2×10^8 cells) and incubating at room temperature for 15 minutes. […]

On to `CCCCN1C(=O)[C@@H]([C@H](O)C2CCCCC2)NC(=O)C12CCN(Cc1ccc(Cc3ccc(C(=O)O)cc3OC)cc1)CC2` [Compound (b), 4-[4-({(3R)-1-butyl-3-[(R)-cyclohexyl(hydroxy)methyl]-2,5-dioxo-1,4,9-triazaspiro[5.5]undec-9-yl}methyl)benzyl]-3-methoxybenzoic acid], for which the “inhibition ratio of allo-reaction growth” value turned out to be 7.8% in test [1] (0.1 μM), 17.6% in test [1] (1 μM) and 44.1% in test [1] (10 μM). Besides, the “inhibition ratio of cell growth” value in test [2] (0.1 μM) was −2.3%; in test [2] (10 μM), 21.8%.
For `CCCCN1C(=O)[C@@H]([C@H](O)C2CCCCC2)NC(=O)C12CCN(Cc1ccc(Oc3ccc(C(=O)O)cc3OCC)cc1)CC2.Cl` [Compound (c), 4-[4-({(3R)-1-butyl-3-[(R)-cyclohexyl(hydroxy)methyl]-2,5-dioxo-1,4,9-triazaspiro[5.5]undec-9-yl}methyl)phenoxy]-3-ethoxybenzoic acid hydrochloride], the “inhibition ratio of cell growth” value in test [2] (0.1 μM) is 48.3%; in test [2] (10 μM), 47.7%.
